Experiment [1] concerns V. harveyi reporter strain BB170 (Sensor 1−, Sensor 2+). Nature of the experiment: V. harveyi luminescence assay, test strain BB170 (AI-2 bioassay). In kind it is cell-based, Vibrio harveyi. The note with it: for signaling activity (induction of luminescence): control experiments, reporter strain BB170. On the procedure:
FIG. 16 panels C and D show the effect of the same compounds on control strain JAF78. Strain BB170 synthesizes AI-2 starting at 4.5 hours into the assay. Light produced at the start of the assays is from AI-2 carried over from cells diluted from stationary phase. Strain JAF78 is a mutant strain in which light production is “locked on” and is unaffected by the presence or absence of autoinducer. Increase in light over the time course reflects increase in cell population density.
Density-dependent Bioluminescence Assay. […] The cell density was measured by diluting the same aliquots of cells used for measuring luminescence, spreading the dilutions onto solid LM medium, incubating the plates overnight at 30° C., and counting the resulting colonies the following day. Relative Light Units are (counts min^−1 ml^−1×10^3)/(colony forming units ml^−1). Cell-free culture supernatants from V. harveyi or S. typhimurium strains were added to a final concentration of 10% (v/v) at the time of the first measurement. In control experiments, 10% (v/v) of AB medium, LB medium or LB medium containing 0.5% glucose was added instead of cell-free culture fluids.
Assay for Production of Signaling Molecules. Cell-free culture fluids from E. coli, S. typhimurium and V. harveyi strains were tested for the presence of signaling substances that could induce luminescence in the V. harveyi reporter strain BB170 or BB886. In the assays, 10 μl of cell-free culture fluids from E. coli AB1157, E. coli DH5α, and S. typhimurium LT2 strains grown and harvested as described above were added to 96-well microtiter dishes. The V. harveyi reporter strain BB170 or BB886 was grown for 16 h at 30° C. with aeration in AB medium, diluted 1:5000 into fresh AB medium, and 90 μl of the diluted cells were added to the wells containing the E. coli and S. typhimurium cell-free culture fluids. Positive control wells contained 10 μl of cell-free culture fluid from strain V. harveyi BB152 (Autoinducer-1^−, Autoinducer-2^+) or V. harveyi BB120 (Autoinducer-1^+, Autoinducer-2^+). Negative control wells contained 10 μl of sterile growth medium. The microtiter dishes were shaken in a rotary shaker at 175 rpm at 30° C.
Bioluminescence Assay. […] Cell-free culture fluids from V. harveyi, E. coli, or S. typhimurium strains to be tested for AI-2 activity were prepared as described above, and assayed at 10% (v/v). AI-2 activity is reported as the fold-induction of the reporter strain over background, or as the percent of the activity obtained from V. harveyi BB120 (wild type) cell-free culture fluid.

Experiment [2] deals with Streptococcus pyogenes ATCC 19615. Briefly: Antibiotic susceptibility assay (NCCLS broth microdilution). The following applies: for MIC: Streptococcus pyogenes, ATCC19615. The experiment is classed as cell-based. On the procedure: (§1) Antimicrobial susceptibility testing was conducted according to the National Committee for Clinical Laboratory Standards (NCCLS) reference method “Broth Dilution Procedure (Microdilution)” published January 1977 (UPDATE VERSION). The method yields a minimum inhibitory dose (MIC) required for complete inhibition of bacterial growth. MICs were determined using a dilution series of antibiotic, in which all of the wells contained a constant concentration of the inhibitor compound was maintained. In addition, before the instant susceptibility tests were performed, the inhibitor compounds were tested in the appropriate inhibitor screens (See, for example, FIG. 32 for the AI-2 inhibitor 2-ethyl-4-hydroxy-5-methyl-3(2H)-furanone). […] Experiments were conducted in 96 well microtiter plates using a final volume of 0.1 ml/well. Assays were conducted using either Mueller-Hinton broth, Todd-Hewitt broth, or Nutrient Broth (Difco). The bacterial innoculum was prepared from a log phase overnight culture of Streptococcus pyogenes ATCC 19615 or Staphylococcus aureus ATCC 25923. Turbidity of the cultures was adjusted with saline to 0.05 McFarland standard (10^7 CFU/ml), and 5 microliters of this innoculum was added to each well. The inhibitor compounds were prepared by dissolving a stock solution in water. Working stocks of quorum inhibitors compounds were made by diluting the stock solutions with bacterial broth. Sodium salts of the antibiotics were used in these experiments. A stock solution (10 mg/ml) was prepared as stipulated by the manufacturer by dissolving a weighed amount of antibiotic in water or DMSO. All antibiotics were added in two-fold serial dilutions to a series of wells to yield final concentrations ranging from 100 μg/ml to 0.1 μg/ml. The single exception was sulfisoxazole where the range of final doses ranged from 300 μg/ml to 2.5 μg/ml. Bacterial broth was used as the diluent. The range of antibiotic concentrations used were chosen to be at and below the MIC for the antibiotic alone. Cultures were sealed and incubated for 20 hours at 37° C. MIC values were determined by spectrophotometric measurements of absorbance at 600 nm. […] Fold-changes in MIC concentration were determined by comparing the MIC for antibiotic and quorum inhibitor compounds with the MIC measured using antibiotic alone.
(In general: In broth dilution the organism is exposed to a series of concentrations in liquid medium.)

Experiment [3] shares this test system. Nature of the experiment: Cell growth monitored by absorbance at 600 nm. In kind it is cell-based. The note with it: 2.4 μg/ml or 2.5 mg/ml. On the procedure: Streptococcus pyogenes ATCC 19615 was grown in the presence of either 2.4 μg/ml or 2.5 mg/ml of compound QXP-035. Cell growth was monitored by taking periodic measurements of absorbance at 600 nm.
The test system of a further experiment is AI-2. Briefly: Inhibition of AI-2 initiated activation of a biochemical pathway. The text has this:
It is an object of the invention to provide compounds and methods for regulating the activity of autoinducer-2 receptors such as LuxP or LuxQ. Compounds of the invention include those that interact with LuxP or LuxQ. Specifically, the invention provides a method for the regulation of LuxP or LuxQ protein resulting in the regulation of bacterial cell growth or the regulation of bacterial pathogenicity by regulating the expression of a factor associated with bacterial virulence. The method of the invention envisions contacting LuxP or LuxQ with pentenomycin, or derivatives thereof, such that LuxP or LuxQ activity is regulated. Pentenomycin has previously been identified as having antibiotic activity. […] The chemical structure of pentenomycin, and derivatives thereof (see below), is/are similar to that of the structure of autoinducer-2 as identified in the present study.

Experiment [4] relates to V. harveyi strains MM32, BB120, BB170. Briefly: Microtiter crystal violet biofilm formation assay. In kind it is cell-based, Vibrio harveyi. The following applies: null mutant (AI-1−/AI-2−) V. harveyi. On the procedure: Biofilm formation was measured using a microtiter-based assay. Free-swimming (planktonic) bacteria were cultured in AB or LB media supplemented with glucose in 96 well microtiter dishes. Biofilms typically formed along the walls of the wells at the interface of the liquid and air phase. At the end of the incubation, aliquots of a crystal violet solution (stock 0.1%) were added to the wells to stain both the adherent and the non-adherent cells. The wells were then washed with deionized water to remove non-adherent cells, and the bound crystal violet solubilized with 200 microliters of water. Absorbance reading at 600 nm (A600) were used to quantitate the amount of crystal violet dye that had adhered to the biofilms. When indicated, synthetic AI-2 was added to the wells at the beginning of the cultures.
Various amounts of synthetic AI-2 were added to the initial free-swimming bacterial cultures in LB media supplemented with glucose, and biofilm formation measured at the end of the incubation.

The subject of experiment [5] is sensor-1+, sensor-2− mutant (BB886). Briefly: Microtiter luminescence assay with AI-1 and strain BB886. The following applies: non self-stimulating strain BB886. The experiment is classed as cell-based, Vibrio harveyi.
Experiment [6] deals with Staphylococcus aureus ATCC 25923. Nature of the experiment: Antibiotic susceptibility assay (NCCLS broth microdilution). In kind it is cell-based. The following applies: with 2-ethyl-4-hydroxy-5-methyl-3(2H)-furanone at 25 μg/ml. As to the method:
as §1

Experiment [7] deals with MM32 indicator strain (LuxS−, LuxN−) of V. harveyi. Nature of the experiment: MM32 bioluminescence assay. The note with it: autoinducer-2 25 μg/ml, QXP-048 25 μg/ml. The experiment is classed as cell-based, Vibrio harveyi. As to the method:
The MM32 indicator strain (LuxS−, LuxN−) of V. harveyi was incubated with various doses of AI-2 and the bioluminescence signal measured at various time points during a 6-hour incubation.
Exogenous synthetic autoinducer-2 was added at the outset of the assay at a final concentration of 25 μg/ml. QXP-048 was added at the outset of the assay at a final concentration of 25 μg/ml. […] Exogeneous synthetic autoinducer-2 was added at the outset of the assay to a final concentration of 25 μg/ml. QXP-048 was added at the outset of the assay at a final concentration of 25 μg/ml.
The invention provides a luxN− and luxS− strain of V. harveyi, designated MM32, for identifying inhibitors of the quorum-sensing pathway. […] Further, since MM32 cannot produce AI-2, addition of exogenous AI-2 or its analogs allows rapid identification of inhibitors of AI-2.

In brackets after ≈: the same amount, converted by molar mass. Where two headings read alike, the source gives them in different places.

For orientation: MIC means the lowest concentration found to suppress growth. In the case of `CCC1OC(C)=C(O)C1=O` (centres unmarked) [QXP-035, 2-ethyl-4-hydroxy-5-methyl-3(2H)-furanone], the “effect on AI-2-dependent bioluminescence” value in experiment [1] (BB170, various amounts, monitored over time) was “inhibition of bioluminescence”. The MIC in experiment [2] (compound alone, read-out: MIC) was > 100 µg/mL. Besides, the “effect on cell growth” value in experiment [3] was “did not inhibit cell growth”.

Turning to `CN[C@H](CC(C)C)C(=O)N[C@H]1C(=O)N[C@@H](CC(N)=O)C(=O)N[C@H]2C(=O)N[C@H]3C(=O)N[C@H](C(=O)N[C@H](C(=O)O)c4cc(O)cc(O)c4-c4cc3ccc4O)[C@H](O)c3ccc(c(Cl)c3)Oc3cc2cc(c3O[C@@H]2O[C@H](CO)[C@@H](O)[C@H](O)[C@H]2O[C@H]2C[C@](C)(N)[C@H](O)[C@H](C)O2)Oc2ccc(cc2Cl)[C@H]1O` [vancomycin], in experiment [2], the “synergy in combination with 2-ethyl-4-hydroxy-5-methyl-3(2H)-furanone” value was “marked synergies”. In addition, the MIC in experiment [2] was ~100 µg/mL (≈ 69 µM). Besides, the “MIC of antibiotic combined with quorum inhibitor” value (shortened to “MIC … with quorum inhibitor”) is given as “approximately the same MIC” in experiment [2] (with 2-ethyl-4-hydroxy-5-methyl-3(2H)-furanone at 5 μg/ml, compared with vancomycin alone); “approximately 1.6 micrograms/milliliter” in experiment [2] (with 2-ethyl-4-hydroxy-5-methyl-3(2H)-furanone at 12.5 μg/ml); “the same MIC” in experiment [2] (with 2-ethyl-4-hydroxy-5-methyl-3(2H)-furanone at 50 μg/ml, compared with 12.5 μg/ml).

Take `O=C1C=C[C@H](O)[C@@]1(O)CO` [pentenomycin]: the “effect on AI-2 initiated activation of a biochemical pathway” value with AI-2 is listed as “acts as an inhibitor”.

As to `CC(=O)O` [acetate], the “signaling activity (induction of luminescence)” value (shortened to “signaling activity”) in experiment [1] is reported as “lacked activity”.

With `C[C@@H](O)CC(=O)N[C@H]1CCOC1=O` [AI-1, N-(3-hydroxybutanoyl)-L-homoserine lactone, reference compound], the “biofilm production after addition to the medium” value in experiment [4] is reported as “allows (AI-1−/AI-2−) V. harveyi to produce biofilm”. The “lowest concentration to which the assay was sensitive” value in experiment [5] is recorded as 100 nM.

`OC[C@H]1OC(O)[C@H](O)[C@@H](O)[C@@H]1O` (some centres unmarked) [Glucose]: in experiment [1], the “signaling activity” value is reported as “lacked activity”.

Regarding `CC1(C)S[C@@H]2[C@H](NC(=O)[C@H](N)c3ccccc3)C(=O)N2[C@H]1C(=O)O` [ampicillin], in experiment [6], the “MIC … with quorum inhibitor” value was found to be 0.4 µg/mL.

Regarding `COC1(c2ccccc2)OC=C(c2ccccc2)C1=O` (centres unmarked) [QXP-048, 2-methoxy-2,4-diphenyl-3(2H)furanone], in experiment [7], the “effect on signal from exogenous synthetic autoinducer-2” value is given as “inhibitory capability”.

Regarding `Cc1noc(NS(=O)(=O)c2ccc(N)cc2)c1C` [sulfisoxazole], the “synergy in combination with 2-ethyl-4-hydroxy-5-methyl-3(2H)-furanone” value in experiment [2] is on record as “marked synergies”. In addition, the MIC in experiment [2] (compound alone, read-out: MIC) is ~300 µg/mL (≈ 1120 µM). Further, the “MIC … with quorum inhibitor” value in experiment [2] (with 2-ethyl-4-hydroxy-5-methyl-3(2H)-furanone at 100 micrograms per milliliter) is reported as “approximately 100 μg/ml”.

`N[C@H]1CCOC1=O` [homoserine lactone]: the “signaling activity” value in experiment [1] is reported as “lacked activity”.

In the case of `O=C(O)CCC(=O)C(=O)O` [-ketoglutarate], the “signaling activity” value in experiment [1] is listed as “lacked activity”.
